Measurements taken from patent US20260207551A1, “PHOSPHOGLICERATE DEHYDROGENASE INHIBITORS FOR THE TREATMENT OF FIBROSIS” (CHIESI FARMACEUTICI S.P.A., priority 2022, published 2026).
Where two headings read alike, the source gives them in different places.

Legend:
[1] = tested on: bleomycin-induced pulmonary fibrosis; experiment: Bleomycin-induced pulmonary fibrosis in male mice (Example 5)
Experimental: Male C57BL6/J mice (7-8 weeks old) were purchased from the Envigo RMS (San Pietro al Natisone (UD), Italy). All mice were maintained under pathogen-free conditions and were provided food and water ad libitum.
Lung injury was induced by double oropharyngeal instillation of Bleomycin hydrochloride (BLM, BAXTER) at day 0 and day 4 at the doses of 0.02 U/mouse in 50 μl of saline solution (0.9%). Control animals received double oropharyngeal instillation of 50 μl of saline solution.
Compound 19 was orally administered twice daily, starting on day 7 after the first oropharyngeal administration of bleomycin at the two doses of 400 and 600 mg/kg/day, 10 ml/kg, dissolved in 0.5% Tween 80, 0.5% Methylcellulose in H2O and treatment lasted for two weeks.
A group of animals was treated with Nintedanib esylate salt, at the dose of 60 mg/kg/day, 10 ml/kg, once daily, to compare the efficacy of the test compounds with an FDA approved drug for the treatment of IPF patients. Control mice were given vehicle-only over the same time intervals. Weight of all animals has been assessed twice a week starting from day 0 until day 21.
On days 21, mice were anesthetized by intraperitoneal injection of thiopental (200 mg/kg/10 ml; pentothal sodium, MSD Animal Health Srl). Blood was withdrawn by cardiac puncture and collected in heparine tubes. Plasma was obtained after centrifugation of blood at 10,000 g for 10 min. Lungs were lavage with saline solution through the heart, formalin fixed and paraffin embedded, and sections were stained with Masson's Trichrome to evaluate the grade and severity of fibrosis and collagen deposition.
Masson's Trichrome stained slides were also scanned with NanoZoomer S60 (Hamamatsu Photonics K.K., Shizuoka, Japan) and acquired into the Visiopharm Integrator System (VIS; version 2017.2.4.3387) for a quantification of pulmonary fibrosis by automated analysis with the support of a VIS Analysis Protocol Package (APP). The present APP has been designed to identify and then quantify the fibrotic tissue, detecting accumulation of altered connective tissue, excess of collagen deposition and cellular density.
To quantify lung protein content and the levels of specific proteins as markers of fibrosis and collagen deposition, lungs from subgroups of animals were weighted, homogenized in Phosphate buffer solution (PBS) and proteins of interest were quantified by immunometric or colorimetric assays. Hydroxyproline content was determined using the Hydroxyproline Colorimetric Assay Kit (Sigma MAK008, USA) according to the manufacturer's protocol. WISP-1, CollagenI, pro-CollagenI and Elastin were determined by Elisa kits. Protein quantification was performed using DC Protein Assay (Bio-Rad Laboratories, Italy). Plasma serine levels were measured using the DL-Serine Assay Kit (Abcam, Cambridge, MA).

[2] = Plasma exposure after the last dose in bleomycin model (Example 5); format: in vivo, Male C57BL6/J mice; settings: 0.5 h, 2 h and 7 h
Experimental: The Bioanalysis of Compound 19 in plasma was carried out under the same experimental conditions as reported in Example 3.
Plasma exposure of Compound 19 was determined following the last oral dose at three timepoints (0.5 h, 2 h and 7 h).

[3] = Plasma and tissue exposure in PK/PD model; format: in vivo, mouse male (C57BL/6J); settings: male, C57BL/6J, mouse, 300 mg/kg, 1 h, 6.5 h and 24.5 h
Experimental: Animals were fasted overnight before treatment. Following 0.5 h from administration of either Compound 19 at dose of 300 mg/kg or vehicle (0.5% Tween 80, 0.5% Methylcellulose in H2O), ^13C6-glucose was administered by oral gavage (2 g/kg, Merck Life Science Srl). Blood, lung, and brain samples were collected at 1 h, 6.5 h and 24.5 h after treatment with Compound 19 or vehicle.
The tissue concentration of ^13C3-serine was determined by a liquid chromatography-tandem mass spectrometry (LC/MS/MS) assay. GraphPad Prism (version 8.1.2) was used for drawing graphs and for statistical analysis. Plasma or tissue homogenate samples (tissues were homogenized with a water/acetonitrile 50/50 mixture) were extracted with 3 volumes of acetonitrile. Supernanatant was injected into HPLC system (Agilent 1260 Quaternary Pump equipped with an Agilent 1200 High Performance Autosampler SL; Agilent), using a Kinetex EVO C18 analytical column (100 A, 50×2.1 mm, 2.6 μm; Phenomenex) for the analysis of Compound 19 or an InfinityLab Poroshell 120 Hilic-Z (50×2.1 mm 2.7 μm; Agilent) for the analysis of ^13C3-serine. […]
Mass spectrometric analysis was performed on a linear ion trap triple quadrupole mass spectrometer (4000 Q TRAP; AB SCIEX) equipped with a turbo spray ion source; mass spectrometer was operated in positive ion mode and quantification was achieved by multiple reaction monitoring (MRM) mode. […]

collagen I (Col-I) = experiment: TGF-b induced Collagen I expression in NHLFs (Western blot); format: cell-based, Human; settings: NHLF
From the text: The antifibrotic activity of compounds of the present invention has been monitored measuring the expression of fibrotic mediators, collagen I (Col-I) and alpha smooth muscle actin (α-SMA) after treatment in lung cells with TGF-β in comparison with Nintedanib (see Frank Hilberg et al, Cancer Res 2008 Jun. 15; 68(12):4774-82), and allosteric inhibitor NCT-503 (see Hamanaka et al., Am J Respir Cell Mol Biol. 2018 May; 58(5):585-593).
Human normal lung fibroblasts (NHLFs) were purchased from Lonza (Basel, Switzerland). NHFLs were cultured in Eagle's Minimum Essential medium (EMEM) w/o serine and glycine, supplemented with 10% Fetal Bovine Serum (FBS), antibiotics (50 U/ml penicillin and 0.05 mg/ml streptomycin) and 2 mM L-glutamine, in an atmosphere of 95% air and 5% CO2 at 37° C. NHLFs cultures were used between passage 1 and 9. Before all the experiments, cells were incubated overnight in serum-free medium.
NHLFs were seeded in 12-well plates at cultured until 70% of confluency. To examine the expression of fibrotic markers, cells were treated with different concentrations of Compounds and NCT-503 in EMEM medium for 1 h followed by stimulation with TGF-β for 48 h at 37° C., 5% CO2. […] Detection and quantification were performed with Odyssey imaging system (Li-cor) using GAPDH as loading control.

SMILES: CC(C)C(C(=O)O)c1ccc(C2(NC(=O)c3cc4c(Cl)c(Cl)ccc4n3C)CCOC2)cc1 (racemic) [Compound 19, (±)-2-(4-(3-(4,5-Dichloro-1-methyl-1H-indole-2-carboxamido)tetrahydro-furan-3-yl)phenyl)-3-methylbutanoic acid]
- circulating serine levels in plasma ([1]; 400 and 600 mg/kg/day): significant reduction at both doses
- reduction of lung/body weight ([1]; Compound 19 highest dose (600 mg/kg/day), Nintedanib esylate 60 mg/kg/day, not significant): −31%
- body weight during 2-weeks of treatment ([1]; compared to BLM/Vehicle treated group): did not lose additional weight
- Ashcroft score (FIG. 11A) ([1]; day 21): reduced
- collagen content (automatic collagen deposition quantification, FIG. 13) ([1]; day 21): reached statistical significance with the highest dose
- frequency of Ashcroft score classes (FIG. 11B) ([1]; day 21): reduced the frequency of the most severe scores of fibrosis
- reduction of tissue area occupied by fibrotic lesions (automated analysis) ([1]; day 21): ~25%
- severity of fibrosis (automated analysis, FIG. 12) ([1]; day 21): significant reduction of severity of fibrosis
- deaths during treatment ([1]; highest tested dose (600 mg/kg/day), two animals died in BLM/Vehicle group): only one animal died
- lung levels of Hydroxyproline, Collagen I and WISP-1 ([1]; lung homogenates): significantly reduced
- plasma exposure following the last oral dose [2]: good oral exposure
- Kp ([3]; brain / plasma, read-out: mean brain/plasma ratio): 0.01
- Kp ([3]; lung / plasma, read-out: mean lung/plasma ratio): 0.4
- IC50 (collagen I (Col-I); Homo sapiens, TGF-β 48 h, confidence interval in brackets, read-out: TGF-b induced Collagen I (pIC50-C.I.) (converted)): 31.6 nM
- FMT induced by TGF-β, Collagen protein expression (FIG. 1) (collagen I (Col-I)): decrease of Collagen protein expression
